Assay results taken from patent US11052092B2, “N-{[2-(piperidin-1-yl)phenyl](phenyl)methyl}-2-(3-oxo-3,4-dihydro-2H-1,4-benzoxazin-7-yl)acetamide derivatives and related compounds as ROR-gamma modulators for treating autoimmune diseases” (Genfit, priority 2017, dated 2021).
Where a name gives a salt, the structure may show the parent alone.

Compound	melting point [°C]
Cc1ccc(C(NC(=O)C2(c3ccc4c(c3)OCC(=O)N4)CC2)c2ccco2)c(C)c1 (stereo not shown) (as salt: HCl) [Cpd. 139, N-[(2,4-dimethylphenyl)(furan-2-yl)methyl]-1-(3-oxo-3,4-dihydro-2H-1,4-benzoxazin-7-yl)cyclopropane-1-carboxamide]	180
Cc1ccc(C(NC(=O)Cc2ccc3c(c2)C(C)(O)C(=O)N3C)c2ccc(C)o2)c(N2CCCCC2)c1 (stereo not shown) (as salt: HCl) [Cpd. 39, 2-(3-hydroxy-1,3-dimethyl-2-oxo-2,3-dihydro-1H-indol-5-yl)-N-{[4-methyl-2-(piperidin-1-yl)phenyl](5-methylfuran-2-yl)methyl}acetamide]	103
Cc1ccc(C(NC(=O)C2(c3ccc4c(c3)CN(S(C)(=O)=O)C4)CC2)c2ccc(Cl)o2)c(N2CCCC2)c1 (stereo not shown) (as salt: HCl) [Cpd. 80, N-[(5-chlorofuran-2-yl)[4-methyl-2-(pyrrolidin-1-yl)phenyl]methyl]-1-(2-methanesulfonyl-2,3-dihydro-1H-isoindol-5-yl)cyclopropane-1-carboxamide]	82
Cc1ccc(C(NC(=O)C2(c3ccc4c(c3)OCC(=O)N4)CC2)c2ccc(C)o2)c(N(C)C)c1 (stereo not shown) (as salt: HCl) [Cpd. 156, N-{[2-(dimethylamino)-4-methylphenyl](5-methylfuran-2-yl)methyl}-1-(3-oxo-3,4-dihydro-2H-1,4-benzoxazin-7-yl)cyclopropane-1-carboxamide]	99
Cc1ccc(C(NC(=O)Cc2ccc3[nH]cc(CCO)c3c2)c2ccc(C)o2)c(N2CCCCC2)c1 (stereo not shown) (as salt: HCl) [Cpd. 57, 2-[3-(2-hydroxyethyl)-1H-indol-5-yl]-N-{[4-methyl-2-(piperidin-1-yl)phenyl](5-methylfuran-2-yl)methyl}acetamide]	80
Cc1ccc(C(NC(=O)C2(c3ccc4c(c3)CS(=O)(=O)C4)CC2)c2ccc(C)o2)c(C)c1 (stereo not shown) (as salt: HCl) [Cpd. 74, N-[(2,4-dimethylphenyl)(5-methylfuran-2-yl)methyl]-1-(2,2-dioxo-1,3-dihydro-2-benzothiophen-5-yl)cyclopropane-1-carboxamide]	74
Cc1ccc(C(NC(=O)Cc2ccc3c(c2)CS(=O)(=O)N3CC2CCOCC2)c2ccc(C)o2)c(N2CCCCC2)c1 (stereo not shown) (as salt: HCl) [Cpd. 167, N-{[4-methyl-2-(piperidin-1-yl)phenyl](5-methylfuran-2-yl)methyl}-2-[1-(oxan-4-ylmethyl)-2,2-dioxo-1,3-dihydro-2,1-benzothiazol-5-yl]acetamide]	85
Cc1ccc(C(NC(=O)C2(c3ccc4c(c3)CN(S(C)(=O)=O)C4)CC2)c2ccc(C)o2)c(N2CCCC2)c1 (stereo not shown) (as salt: HCl) [Cpd. 73, 1-(2-methanesulfonyl-2,3-dihydro-1H-isoindol-5-yl)-N-{[4-methyl-2-(pyrrolidin-1-yl)phenyl](5-methylfuran-2-yl)methyl}cyclopropane-1-carboxamide]	84
Cc1ccc(C(NC(=O)Cc2ccc3c(c2)C(=O)C(=O)N3C)c2ccc(C)o2)c(N2CCCCC2)c1 (stereo not shown) (as salt: sodium) [Cpd. 45, 2-(1-methyl-2,3-dioxo-2,3-dihydro-1H-indol-5-yl)-N-{[4-methyl-2-(piperidin-1-yl)phenyl](5-methylfuran-2-yl)methyl}acetamide]	99
Cc1ccc(C(NC(=O)Cc2ccc3ccn(C(=O)N4CCOCC4)c3c2)c2ccc(C)o2)c(N2CCCCC2)c1 (stereo not shown) (as salt: HCl) [Cpd. 114, N-{[4-methyl-2-(piperidin-1-yl)phenyl](5-methylfuran-2-yl)methyl}-2-[1-(morpholine-4-carbonyl)-1H-indol-6-yl]acetamide]	85
Cc1ccc(C(NC(=O)Cc2ccc3c(ccn3CCC(=O)OC(C)(C)C)c2)c2ccc(C)o2)c(C)c1 (stereo not shown) (as salt: HCl) [Cpd. 99, tert-butyl 3-[5-({[(2,4-dimethylphenyl)(5-methylfuran-2-yl)methyl]carbamoyl}methyl)-1H-indol-1-yl]propanoate]	39
Cc1ccc(C(NC(=O)Cc2ccc3c(ccn3CC3CCOCC3)c2)c2ccc(C)o2)c(N2CCCCC2)c1 (stereo not shown) (as salt: sodium) [Cpd. 113, N-{[4-methyl-2-(piperidin-1-yl)phenyl](5-methylfuran-2-yl)methyl}-2-[1-(oxan-4-ylmethyl)-1H-indol-5-yl]acetamide]	67
Cc1ccc(C(NC(=O)Cc2ccc3[nH]cc(CCS(C)(=O)=O)c3c2)c2ccc(C)o2)c(N2CCCCC2)c1 (stereo not shown) (as salt: HCl) [Cpd. 98, 2-[3-(2-methanesulfonylethyl)-1H-indol-5-yl]-N-{[4-methyl-2-(piperidin-1-yl)phenyl](5-methylfuran-2-yl)methyl}acetamide]	107
Cc1ccc(C(NC(=O)Cc2ccc3c(ccn3CCC(=O)OC(C)(C)C)c2)c2ccc(C)o2)c(N2CCCCC2)c1 (stereo not shown) (as salt: HCl) [Cpd. 96, tert-butyl 3-{5-[({[4-methyl-2-(piperidin-1-yl)phenyl](5-methylfuran-2-yl)methyl}carbamoyl)methyl]-1H-indol-1-yl}propanoate]	50
Cc1ccc(C(NC(=O)C2(c3ccc4c(c3)CC(=O)N4)CC2)c2ccc(C)o2)c(C)c1 (stereo not shown) (as salt: HCl) [Cpd. 61, N-[(2,4-dimethylphenyl)(5-methylfuran-2-yl)methyl]-1-(2-oxo-2,3-dihydro-1H-indol-5-yl)cyclopropane-1-carboxamide]	85
Cc1ccc(C(NC(=O)Cc2ccc3c(c2)C(=O)CC3)c2ccc(C)o2)c(N2CCCCC2)c1 (stereo not shown) (as salt: HCl) [Cpd. 67, N-{[4-methyl-2-(piperidin-1-yl)phenyl](5-methylfuran-2-yl)methyl}-2-(3-oxo-2,3-dihydro-1H-inden-5-yl)acetamide]	71
Cc1ccc(C(NC(=O)C2(c3ccc4c(c3)CC(=O)N4)CC2)c2ccc(Cl)o2)c(C)c1 (stereo not shown) (as salt: HCl) [Cpd. 86, N-[(5-chlorofuran-2-yl)(2,4-dimethylphenyl)methyl]-1-(2-oxo-2,3-dihydro-1H-indol-5-yl)cyclopropane-1-carboxamide]	78
Cc1ccc(C(NC(=O)Cc2ccc3c(c2)CCC3=O)c2ccc(C)o2)c(N2CCCCC2)c1 (stereo not shown) (as salt: HCl) [Cpd. 51, N-{[4-methyl-2-(piperidin-1-yl)phenyl](5-methylfuran-2-yl)methyl}-2-(1-oxo-2,3-dihydro-1H-inden-5-yl)acetamide]	74
Cc1ccc(C(NC(=O)C2(c3ccc4c(c3)OCS(=O)(=O)N4C)CC2)c2ccc(C)o2)c(C)c1 (stereo not shown) (as salt: HCl) [Cpd. 172, N-[(2,4-dimethylphenyl)(5-methylfuran-2-yl)methyl]-1-(1-methyl-2,2-dioxo-1,3-dihydro-4,2,1-benzoxathiazin-6-yl)cyclopropane-1-carboxamide]	65
Cc1ccc(C(NC(=O)C2(c3ccc4c(c3)CS(=O)(=O)N4C)CC2)c2ccc(Cl)o2)c(C)c1 (stereo not shown) (as salt: HCl) [Cpd. 160, N-[(5-chlorofuran-2-yl)(2,4-dimethylphenyl)methyl]-1-(1-methyl-2,2-dioxo-1,3-dihydro-2,1-benzothiazol-5-yl)cyclopropane-1-carboxamide]	70
Cc1ccc(C(NC(=O)Cc2cc(C)c3c(c2)CC(=O)N3)c2ccc(C)o2)c(N2CCCCC2)c1 (stereo not shown) (as salt: HCl) [Cpd. 54, N-{[4-methyl-2-(piperidin-1-yl)phenyl](5-methylfuran-2-yl)methyl}-2-(7-methyl-2-oxo-2,3-dihydro-1H-indol-5-yl)acetamide]	237
Cc1ccc(C(NC(=O)C2(c3ccc4c(c3)CN(S(C)(=O)=O)C4)CC2)c2ccc(C)o2)c(N(C)C)c1 (stereo not shown) (as salt: HCl) [Cpd. 76, N-{[2-(dimethylamino)-4-methylphenyl](5-methylfuran-2-yl)methyl}-1-(2-methanesulfonyl-2,3-dihydro-1H-isoindol-5-yl)cyclopropane-1-carboxamide]	70
Cc1cnc(C(NC(=O)C2(c3ccc4c(c3)OCS(=O)(=O)N4)CC2)c2ccc(C)o2)c(C)c1 (stereo not shown) (as salt: HCl) [Cpd. 153, N-[(3,5-dimethylpyridin-2-yl)(5-methylfuran-2-yl)methyl]-1-(2,2-dioxo-1,3-dihydro-4,2,1-benzoxathiazin-6-yl)cyclopropane-1-carboxamide]	189
Cc1ccc(C(NC(=O)Cc2ccc3[nH]c(N4CCOCC4)nc3c2)c2ccc(C)o2)c(N2CCCCC2)c1 (stereo not shown) (as salt: HCl) [Cpd. 93, N-{[4-methyl-2-(piperidin-1-yl)phenyl](5-methylfuran-2-yl)methyl}-2-[2-(morpholin-4-yl)-1H-1,3-benzodiazol-5-yl]acetamide]	125
Cc1ccc(C(NC(=O)Cc2ccc3c(c2)CN(S(C)(=O)=O)C3)c2ccc(C)o2)c(N2CCCCC2)c1 (stereo not shown) (as salt: HCl) [Cpd. 41, 2-(2-methanesulfonyl-2,3-dihydro-1H-isoindol-5-yl)-N-{[4-methyl-2-(piperidin-1-yl)phenyl](5-methylfuran-2-yl)methyl}acetamide]	83
Cc1ccc(C(NC(=O)Cc2ccc3c(c2)CS(=O)(=O)N3CC2CCOCC2)c2ccc(C)o2)c(C)c1 (stereo not shown) (as salt: HCl) [Cpd. 166, N-[(2,4-dimethylphenyl)(5-methylfuran-2-yl)methyl]-2-[1-(oxan-4-ylmethyl)-2,2-dioxo-1,3-dihydro-2,1-benzothiazol-5-yl]acetamide]	83
Cc1ccc(C(NC(=O)C2(c3ccc4c(c3)C(F)(F)C(=O)N4)CC2)c2ccc(C)o2)c(C)c1 (stereo not shown) (as salt: HCl) [Cpd. 159, 1-(3,3-difluoro-2-oxo-2,3-dihydro-1H-indol-5-yl)-N-[(2,4-dimethylphenyl)(5-methylfuran-2-yl)methyl]cyclopropane-1-carboxamide]	177
COCC(=O)N1Cc2ccc(C3(C(=O)NC(c4ccc(C)o4)c4ccc(C)cc4C)CC3)cc2C1 (stereo not shown) (as salt: HCl) [Cpd. 122, N-[(2,4-dimethylphenyl)(5-methylfuran-2-yl)methyl]-1-[2-(2-methoxyacetyl)-2,3-dihydro-1H-isoindol-5-yl]cyclopropane-1-carboxamide]	55
